Measured values: US9546175B2, “Organic compounds” (Intra-Cellular Therapies, Inc., priority 2014, dated 2017)

Assay: Pharmacokinetic analysis in mice, plasma and brain levels by LC-MS/MS
Type: in vivo
Settings: mouse, male C57BL/6 mice, 10 mg/kg oral (PO), 0.25-2 h, read-out: B/P ratio (Brain AUC(0-2h)/Plasma AUC(0-2h))
Description: Animals: Male, C57BL/6 mice (Jackson Labs, 25-30 g in body weight) are provided by Jackson Laboratories. Up to five mice are housed per cage and are maintained under a 12 hour light/dark cycle with access to food and water ad libitum. All procedures for the handling and use of animals follow the guidelines of the Institutional Animal Care and Use Committee (IACUC) of Columbia University, in accordance with NIH guidelines. Eight week-old mice (N=3/dose level or treatment group) are used in the experiments.
Experimental Treatment: Compounds: Selected Compounds of the Invention are evaluated in the present study. […]
Compound Preparation: Powdered stocks of the test compound(s) are measured and dissolved in 3% 1N HCl, 5% Labrasol and 92% of 5% TPGS in 0.05M Citrate buffer (CB, pH 4.0). […]
Treatment of Animals: Mice (N=3 mice/dose/time point) receive a 10 mg/kg oral (PO) dose of the test compound(s) at time 0. […] Plasma and brain tissue samples are processed and analyzed by the analytical group using LC-MS/MS methods, as described below. […]
Each tube is vortexed, then centrifuged for 20 min at 15000 rpm using a Tomy benchtop centrifuge at 4° C., Standard is an internal standard used for LC-MS/MS quantitation. […]
Each compound is detected and quantified using Multiple Reaction Monitoring (MRM) of positive electrospray mode with a Waters QuattroMicro™ mass spectrometry system. […]

| Kp | SMILES |
| --- | --- |
| ≤ 0.05 | CC(C)Cn1c(=O)n(C)c(=O)c2c(Nc3ccccc3)n(Cc3ccc(S(N)(=O)=O)cc3)nc21 [Example 1, 4-((7-Isobutyl-5-methyl-4,6-dioxo-3-(phenylamino)-4,5,6,7-tetrahydropyrazolo[3,4-d]pyrimidin-2-yl)methyl)benzenesulfonamide] |
| ≤ 0.05 | CC(C)Cn1c(=O)n(C)c(=O)c2c(Nc3ccccc3)n(Cc3ccc(C(=O)O)cc3)nc21 [Example 2, 4-((7-isobutyl-5-methyl-4,6-dioxo-3-(phenylamino)-4,5,6,7-tetrahydropyrazolo[3,4-d]pyrimidin-2-yl)methyl)benzoic acid] |
